Activity calls are given as the source filed them. The rule behind the calls is not given here.
Experiments:
[1] = target: T1, Arginase-1 (Homo sapiens) (UniProt P05089); assay: Binding affinity to N-terminal his6-tagged truncated human ARG-1 expressed in Escherichia coli BL21 (DE3) cells assessed as thermal stabilization at 20 mM measured for 24 hrs by nanoDSF analysis
T1 sequence (whole entry): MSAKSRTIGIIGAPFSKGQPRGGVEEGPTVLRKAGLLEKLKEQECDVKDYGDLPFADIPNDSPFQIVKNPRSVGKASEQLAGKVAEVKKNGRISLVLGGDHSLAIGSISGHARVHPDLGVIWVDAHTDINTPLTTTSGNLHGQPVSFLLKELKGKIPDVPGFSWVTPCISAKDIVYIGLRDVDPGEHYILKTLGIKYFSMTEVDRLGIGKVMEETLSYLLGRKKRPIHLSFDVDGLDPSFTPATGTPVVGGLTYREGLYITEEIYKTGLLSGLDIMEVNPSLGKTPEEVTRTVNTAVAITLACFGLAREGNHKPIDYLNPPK

[2] = target: T1, Arginase-1 (Homo sapiens); assay: Binding affinity to full length N-terminal his6-tagged human ARG-1 expressed in Escherichia coli BL21 (DE3) cells assessed as thermal stabilization at 0.625 to 20 mM measured for 24 hrs by nanoDSF analysis; conditions: dose 0.625-20 mM
[3] = target: T1, Arginase-1 (Homo sapiens); assay: Inhibition of N-terminal his6-tagged truncated human ARG-1 expressed in Escherichia coli BL21 (DE3) cells at 10 mM incubated for 24 hrs
Homo sapiens = organism: Homo sapiens; assay: Inhibition of full length N-terminal his6-tagged human ARG-1 R205A mutant expressed in Escherichia coli BL21 (DE3) cells by mass spectrometry analysis
[4] = target: T1, Arginase-1 (Homo sapiens); assay: Inhibition of full length N-terminal his6-tagged human ARG-1 expressed in Escherichia coli BL21 (DE3) cells upto 20 mM incubated for 24 hrs by coomassie blue staining based SDS/PAGE analysis
[5] = target: T1, Arginase-1 (Homo sapiens); assay: Inhibition of full length N-terminal his6-tagged human ARG-1 expressed in Escherichia coli BL21 (DE3) cells at 10 mM incubated for 24 hrs relative to control

Question: What does the source list for `O=CC(=O)c1ccccc1`?
Answer: Activity [1]: Active; Activity [2]: Active; inhibition [3]: Active; inhibition (Homo sapiens): Active; inhibition [4]: Active; inhibition [5]: 30%
